{
  "source": "patent EP4186488A1",
  "about": "“A TOPICAL COMPOSITION” (Unilever IP Holdings B.V., priority 2021, dated 2023)",
  "data": [
    {"test_system": "Human primary melanocytes", "experiment": "melanin content assay (MCA)", "type": "cell-based", "details": "72 hours incubation with active(s), wt% of active(s) as listed per example, OD 405nm, untreated cells = 100% melanin content", "protocol": "In-vitro studies on the effect of the combination of the actives on melanin inhibition using melanin content assay (MCA) was used. The method is described below. Human primary melanocytes were grown in melanocytes growth medium (MGM) with human melanocyte growth supplement. 500 µL/well (5X10^4 cells/well) of this solution was plated in a 24 wells plate and incubated in an incubator (Thermo Scientific, Model 3111) at 37°C with 5% CO2 atmosphere. After 24 hours of incubation, cell cultures were treated with the lead actives either dissolved in water or DMSO. The cells were again incubated for 72 hours in an incubator (Thermo Scientific, Model 3111; conditions: 5% CO2, at 37°C). Comparative vehicle controls of 0.1 % (v/v) DMSO or media control (for aqueous actives) were also set up simultaneously. At the end of the incubation period, cell viability was determined using the calcein method. After calcein fluorescence readings were obtained, drained the cells and added fresh 0.15 ml of 1N NaOH (in 10% DMSO) per well. Cells were lysed by resuspension and incubation (60 °C/1 hr.). Then, 0.12 ml of this lysate was transferred to a fresh […] plate and measured OD405nm in a TECAN M1000 plate reader (estimate of relative melanin content). The spectrophotometric OD at 405nm for untreated cells (No active) is considered as 100% melanin content, with respect to this, treatment (active) percentage is calculated.", "units": {"% melanin inhibition": "%"}, "values": [
      {"smiles": "NC(=O)c1cccnc1", "note": "[B, Niacinamide]", "% melanin inhibition": 7.4},
      {"smiles": "NC(=O)c1cccnc1", "note": "[C, Niacinamide]", "% melanin inhibition": 9.2},
      {"smiles": "NC(=O)c1cccnc1", "note": "[D, Niacinamide]", "% melanin inhibition": 6.1},
      {"smiles": "CCCCCCC(O)CCCCCCCCCCC(=O)O", "note": "(stereo not shown) [E, 12-hydroxystearic acid]", "% melanin inhibition": 4.1}
    ]}
  ]
}
